Experimental data reported in patent publication US20110034369A1, “Agonists of Bitter Taste Receptors and Uses Thereof” (DEUTSCHES INSTITUT FUR ERNAHRUNGSFORSCHUNG POTSDAM-REHBRUCKE, priority 2004, published 2011).

Tests used:
Format in all cases: cell-based
[1] = biological target: T1, hTAS2R1 (Homo sapiens, UniProt Q9NYW7); assay: FLIPR calcium mobilization, hTAS2R1-transfected HEK-293T/Gα16gust44 cells; details: response of hTAS2R1, calcium signal; for threshold: Fluo4-AM, transiently transfected HEK-293T Gα16gust44; for EC50: dose-response
T1 construct: export tag: amino acids 1-45 of rat somatostatin receptor 3 (N); expressed in transfected cells; host or cells: HEK-293T cells stably expressing the chimeric G-protein subunit Galpha16gust44
T1 sequence (Q9NYW7 1-299): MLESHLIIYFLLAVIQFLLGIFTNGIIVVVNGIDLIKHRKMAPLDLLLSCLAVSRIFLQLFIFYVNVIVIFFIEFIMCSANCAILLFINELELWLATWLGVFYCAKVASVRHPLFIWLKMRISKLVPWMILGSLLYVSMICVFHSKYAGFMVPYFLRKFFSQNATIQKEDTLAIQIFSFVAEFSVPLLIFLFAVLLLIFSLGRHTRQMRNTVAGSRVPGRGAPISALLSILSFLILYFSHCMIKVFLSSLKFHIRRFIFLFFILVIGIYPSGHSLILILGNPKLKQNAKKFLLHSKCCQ
Experimental: Ligand screening using an automated fluorometric imaging plate reader (Molecular Devices) was essentially done as described (Bufe B. et al. (2002) Nature Genetics 32: 397-401). Briefly: The cells were seeded at a density of 70,000±10,000 cells per well in 96-well microtiter plates. The cDNA of hTAS2R1, hTASR3, hTASR7 and hTASR40 supplemented with an amino terminal export tag corresponding to amino acids 1-45 of rat somatostatin receptor 3 and a carboxy terminal HSV-tag was transiently transfected into HEK-293T cells stably expressing the chimeric G-protein subunit Gα16gust44 (Ueda T. et al. (2003) J. Neurosci. 23: 7376-7380) using Lipofectamine2000 (Invitrogen). […] 24-32 hours after transfection, the cells were then loaded for 1 hour with the calcium sensitive dye Fluo4-AM (2 μg/ml in DMEM, Molecular Probes). Cells were washed 3× in solution C1 (130 mM NaCl, 5 mM KCl, 10 mM Hepes, 2 mM CaCl2, and 10 mM Glucose, pH 7.4). Calcium mobilization was monitored by an automated fluorometric imaging plate reader (Molecular Devices). Ligands (Sigma-Aldrich) were dissolved in C1 solution. All data were collected from experiments carried out in triplicate. For dose-response curves, the obtained calcium signals were corrected for and normalized to background fluorescence ΔF/F=(F−F0)/F0 and baseline noise was subtracted.

[2] = biological target: T2, hTAS2R40 (Homo sapiens, UniProt P59535); assay: FLIPR calcium mobilization, hTAS2R40-transfected HEK-293T/Gα16gust44 cells; details: response of hTAS2R40; calcium signal
T2 construct: export tag: amino acids 1-45 of rat somatostatin receptor 3 (N); expressed in transfected cells; host or cells: HEK-293T cells stably expressing the chimeric G-protein subunit Galpha16gust44
Experimental: (§1) Ligand screening using an automated fluorometric imaging plate reader (Molecular Devices) was essentially done as described (Bufe B. et al. (2002) Nature Genetics 32: 397-401). Briefly: The cells were seeded at a density of 70,000±10,000 cells per well in 96-well microtiter plates. The cDNA of hTAS2R1, hTASR3, hTASR7 and hTASR40 supplemented with an amino terminal export tag corresponding to amino acids 1-45 of rat somatostatin receptor 3 and a carboxy terminal HSV-tag was transiently transfected into HEK-293T cells stably expressing the chimeric G-protein subunit Gα16gust44 (Ueda T. et al. (2003) J. Neurosci. 23: 7376-7380) using Lipofectamine2000 (Invitrogen). Expression rates were determined to be 20% for hTAS2R1; 35% for hTAS2R3, 14% for hTAS2R7 and 29% for hTAS2R40 by indirect immunocyclochemistry using monoclonal anti-HSV antibodies (Novagen) and secondary anti-mouse IgG antibodies coupled to Alexa 488 (Molecular probes) see (FIG. 1). 24-32 hours after transfection, the cells were then loaded for 1 hour with the calcium sensitive dye Fluo4-AM (2 μg/ml in DMEM, Molecular Probes). […] Calcium mobilization was monitored by an automated fluorometric imaging plate reader (Molecular Devices). […] For dose-response curves, the obtained calcium signals were corrected for and normalized to background fluorescence ΔF/F=(F−F0)/F0 and baseline noise was subtracted.

[3] = biological target: T3, hTAS2R7 (Homo sapiens, UniProt Q9NYW3); assay: FLIPR calcium mobilization, hTAS2R7-transfected HEK-293T/Gα16gust44 cells; details: response of hTAS2R7, calcium signal
T3 construct: export tag: amino acids 1-45 of rat somatostatin receptor 3 (N); expressed in transfected cells; host or cells: HEK-293T cells stably expressing the chimeric G-protein subunit Galpha16gust44
T3 sequence (Q9NYW3 1-318): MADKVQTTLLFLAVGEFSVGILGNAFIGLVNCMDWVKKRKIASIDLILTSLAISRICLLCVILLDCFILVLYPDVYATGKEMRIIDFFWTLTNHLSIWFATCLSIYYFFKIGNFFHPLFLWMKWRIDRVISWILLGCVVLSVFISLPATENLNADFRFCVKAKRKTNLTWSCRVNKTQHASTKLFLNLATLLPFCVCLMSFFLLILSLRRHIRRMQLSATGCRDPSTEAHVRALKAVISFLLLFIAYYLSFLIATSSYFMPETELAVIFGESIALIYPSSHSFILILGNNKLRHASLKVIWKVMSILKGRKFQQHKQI
Experimental: Ligand screening using an automated fluorometric imaging plate reader (Molecular Devices) was essentially done as described (Bufe B. et al. (2002) Nature Genetics 32: 397-401). Briefly: The cells were seeded at a density of 70,000±10,000 cells per well in 96-well microtiter plates. The cDNA of hTAS2R1, hTASR3, hTASR7 and hTASR40 supplemented with an amino terminal export tag corresponding to amino acids 1-45 of rat somatostatin receptor 3 and a carboxy terminal HSV-tag was transiently transfected into HEK-293T cells stably expressing the chimeric G-protein subunit Gα16gust44 (Ueda T. et al. (2003) J. Neurosci. 23: 7376-7380) using Lipofectamine2000 (Invitrogen). Expression rates were determined to be 20% for hTAS2R1; 35% for hTAS2R3, 14% for hTAS2R7 and 29% for hTAS2R40 by indirect immunocyclochemistry using monoclonal anti-HSV antibodies (Novagen) and secondary anti-mouse IgG antibodies coupled to Alexa 488 (Molecular probes) see (FIG. 1). 24-32 hours after transfection, the cells were then loaded for 1 hour with the calcium sensitive dye Fluo4-AM (2 μg/ml in DMEM, Molecular Probes). Cells were washed 3× in solution C1 (130 mM NaCl, 5 mM KCl, 10 mM Hepes, 2 mM CaCl2, and 10 mM Glucose, pH 7.4). Calcium mobilization was monitored by an automated fluorometric imaging plate reader (Molecular Devices). Ligands (Sigma-Aldrich) were dissolved in C1 solution. All data were collected from experiments carried out in triplicate. For dose-response curves, the obtained calcium signals were corrected for and normalized to background fluorescence ΔF/F=(F−F0)/F0 and baseline noise was subtracted.

[4] = biological target: T4, hTAS2R3 (Homo sapiens, UniProt Q9NYW6); assay: FLIPR calcium mobilization, hTAS2R3-transfected HEK-293T/Gα16gust44 cells; details: response of hTAS2R3; calcium signal
T4 construct: export tag: amino acids 1-45 of rat somatostatin receptor 3 (N); expressed in transfected cells; host or cells: HEK-293T cells stably expressing the chimeric G-protein subunit Galpha16gust44
T4 sequence (Q9NYW6 1-316): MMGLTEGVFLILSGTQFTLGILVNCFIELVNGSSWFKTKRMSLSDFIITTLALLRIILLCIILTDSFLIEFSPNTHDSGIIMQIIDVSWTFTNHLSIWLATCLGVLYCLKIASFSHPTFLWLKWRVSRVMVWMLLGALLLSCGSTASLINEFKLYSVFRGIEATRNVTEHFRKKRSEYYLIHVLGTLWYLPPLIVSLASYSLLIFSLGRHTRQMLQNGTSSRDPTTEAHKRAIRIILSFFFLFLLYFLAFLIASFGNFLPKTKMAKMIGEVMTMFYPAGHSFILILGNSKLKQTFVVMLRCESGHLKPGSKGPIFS
Experimental: as §1

T2 sequence (P59535 whole entry, the tested form may be a part): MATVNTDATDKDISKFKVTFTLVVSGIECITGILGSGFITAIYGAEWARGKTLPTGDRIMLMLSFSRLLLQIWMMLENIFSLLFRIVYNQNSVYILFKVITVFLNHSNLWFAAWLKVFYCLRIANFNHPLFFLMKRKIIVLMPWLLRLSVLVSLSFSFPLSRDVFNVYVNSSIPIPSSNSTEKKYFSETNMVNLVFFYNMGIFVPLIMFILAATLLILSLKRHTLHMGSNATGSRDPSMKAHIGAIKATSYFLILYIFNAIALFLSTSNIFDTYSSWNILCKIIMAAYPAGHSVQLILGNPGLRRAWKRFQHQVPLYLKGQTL

Compound	max. amplitude [1]	threshold [1]	EC50 [1]	max. amplitude [3]	threshold [3]	other results
O=C(O)c1cc(=O)c2c(OCC(O)COc3cccc4oc(C(=O)O)cc(=O)c34)cccc2o1 [Cromolyn, cromolyn]	–	–	–	3000 counts	~1 mM	EC50 ([3]; dose-response): 9000 µM
CN1CC(=O)NC1=N [Creatinine, creatinine]	–	–	–	3000 counts	~10 mM	max. amplitude [4]: 5000 counts; threshold [4]: ~30 mM
O=C(N[C@H](CO)[C@H](O)c1ccc([N+](=O)[O-])cc1)C(Cl)Cl [Chloramphenicol, chloramphenicol]	9000 counts	~0.1 mM	200 µM	–	–	–
C=C(C)[C@@H]1[C@H]2OC(=O)[C@@H]1[C@]1(O)C[C@H]3O[C@]34C(=O)O[C@H]2[C@]14C [Picrotoxinin, picrotoxinin]	2000 counts	~0.0001 mM	–	–	–	–

More lines, main results first:

max. amplitude [1]	threshold [1]	EC50 [1]	Compound	max. amplitude [3]	threshold [3]	other results
9000 counts	~0.0001 mM	0.9 µM	humulone	–	–	max. amplitude [2]: 6000 counts; threshold [2]: <0.00003 mM
3000 counts	~0.03 mM	–	COC(=O)[C@@H]1[C@H]2C[C@H]3c4[nH]c5ccccc5c4CCN3C[C@@H]2CC[C@@H]1O [Yohimbine, yohimbine]	–	–	–
